# Like-named read-outs stand apart in the source and are kept apart here.
# Tests used:
# PTPN11/SHP2-FL(E76K) = target: T1, PTPN11/SHP2-FL(E76K) (Homo sapiens, UniProt Q06124, E76K); assay: Phosphatase panel, DiFMUP assay, E76K mutant
# T1 sequence (Q06124 2-597 isoform Q06124-1 E76K): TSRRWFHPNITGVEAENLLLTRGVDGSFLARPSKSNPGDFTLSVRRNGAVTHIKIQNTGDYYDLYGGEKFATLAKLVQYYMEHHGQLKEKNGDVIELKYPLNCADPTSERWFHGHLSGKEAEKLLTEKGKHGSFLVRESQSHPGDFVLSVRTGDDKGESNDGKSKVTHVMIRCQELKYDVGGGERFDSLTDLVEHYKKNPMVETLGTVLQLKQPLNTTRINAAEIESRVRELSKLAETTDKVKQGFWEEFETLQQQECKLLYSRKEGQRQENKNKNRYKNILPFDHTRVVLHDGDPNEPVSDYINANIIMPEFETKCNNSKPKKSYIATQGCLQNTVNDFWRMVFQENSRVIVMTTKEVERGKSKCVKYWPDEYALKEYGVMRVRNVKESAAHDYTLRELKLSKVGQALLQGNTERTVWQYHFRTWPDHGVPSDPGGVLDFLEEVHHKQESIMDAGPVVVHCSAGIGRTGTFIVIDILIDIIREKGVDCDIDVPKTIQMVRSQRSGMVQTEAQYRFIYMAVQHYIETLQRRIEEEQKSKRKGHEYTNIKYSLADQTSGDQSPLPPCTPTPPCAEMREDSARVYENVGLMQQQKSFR
# PTPRC/CD45 = target: T2, PTPRC/CD45 (Homo sapiens, UniProt P08575); assay: Phosphatase panel, DiFMUP fluorescence assay; format: biochemical
# T2 construct: purchased Recation Biology Inc
# T2 sequence (P08575 26-1306): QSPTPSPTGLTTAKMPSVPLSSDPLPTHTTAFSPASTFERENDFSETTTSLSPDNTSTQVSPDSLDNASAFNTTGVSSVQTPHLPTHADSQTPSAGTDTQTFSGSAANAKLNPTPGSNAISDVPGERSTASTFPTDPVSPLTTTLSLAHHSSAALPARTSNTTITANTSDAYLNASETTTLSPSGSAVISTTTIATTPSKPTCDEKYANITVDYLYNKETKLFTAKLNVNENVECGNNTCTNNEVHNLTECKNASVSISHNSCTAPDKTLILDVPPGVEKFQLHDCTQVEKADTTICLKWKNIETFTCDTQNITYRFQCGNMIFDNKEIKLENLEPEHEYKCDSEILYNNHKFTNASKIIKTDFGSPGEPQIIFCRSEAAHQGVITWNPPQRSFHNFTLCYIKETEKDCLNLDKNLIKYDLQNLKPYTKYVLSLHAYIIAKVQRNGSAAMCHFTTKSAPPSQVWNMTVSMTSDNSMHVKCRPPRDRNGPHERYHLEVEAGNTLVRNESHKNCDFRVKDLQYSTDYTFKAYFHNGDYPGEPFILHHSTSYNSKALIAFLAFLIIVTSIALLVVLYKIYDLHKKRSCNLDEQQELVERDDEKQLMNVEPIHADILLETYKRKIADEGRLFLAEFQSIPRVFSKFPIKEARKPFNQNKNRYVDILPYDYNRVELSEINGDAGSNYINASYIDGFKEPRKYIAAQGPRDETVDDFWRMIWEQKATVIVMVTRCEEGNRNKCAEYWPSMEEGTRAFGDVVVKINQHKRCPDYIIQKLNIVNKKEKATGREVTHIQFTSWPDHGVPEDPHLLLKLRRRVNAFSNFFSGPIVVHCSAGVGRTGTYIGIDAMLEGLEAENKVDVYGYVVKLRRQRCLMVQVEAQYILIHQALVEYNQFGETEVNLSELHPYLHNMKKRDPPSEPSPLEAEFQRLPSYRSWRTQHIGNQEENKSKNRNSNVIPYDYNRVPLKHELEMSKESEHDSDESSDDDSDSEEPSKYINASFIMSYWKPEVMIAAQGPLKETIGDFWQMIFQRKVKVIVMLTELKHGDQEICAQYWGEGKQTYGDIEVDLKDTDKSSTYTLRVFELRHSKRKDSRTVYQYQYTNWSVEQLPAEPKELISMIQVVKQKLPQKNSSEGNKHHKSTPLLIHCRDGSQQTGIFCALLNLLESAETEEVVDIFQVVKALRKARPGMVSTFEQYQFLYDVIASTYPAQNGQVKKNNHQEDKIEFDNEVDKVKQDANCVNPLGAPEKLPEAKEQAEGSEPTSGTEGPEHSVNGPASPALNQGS
# PTPN12/PTP-PEST = target: T3, PTPN12/PTP-PEST (Homo sapiens, UniProt Q05209); assay: Phosphatase panel, DiFMUP fluorescence assay; format: biochemical
# T3 construct: purchased Recation Biology Inc
# T3 sequence (Q05209 1-780): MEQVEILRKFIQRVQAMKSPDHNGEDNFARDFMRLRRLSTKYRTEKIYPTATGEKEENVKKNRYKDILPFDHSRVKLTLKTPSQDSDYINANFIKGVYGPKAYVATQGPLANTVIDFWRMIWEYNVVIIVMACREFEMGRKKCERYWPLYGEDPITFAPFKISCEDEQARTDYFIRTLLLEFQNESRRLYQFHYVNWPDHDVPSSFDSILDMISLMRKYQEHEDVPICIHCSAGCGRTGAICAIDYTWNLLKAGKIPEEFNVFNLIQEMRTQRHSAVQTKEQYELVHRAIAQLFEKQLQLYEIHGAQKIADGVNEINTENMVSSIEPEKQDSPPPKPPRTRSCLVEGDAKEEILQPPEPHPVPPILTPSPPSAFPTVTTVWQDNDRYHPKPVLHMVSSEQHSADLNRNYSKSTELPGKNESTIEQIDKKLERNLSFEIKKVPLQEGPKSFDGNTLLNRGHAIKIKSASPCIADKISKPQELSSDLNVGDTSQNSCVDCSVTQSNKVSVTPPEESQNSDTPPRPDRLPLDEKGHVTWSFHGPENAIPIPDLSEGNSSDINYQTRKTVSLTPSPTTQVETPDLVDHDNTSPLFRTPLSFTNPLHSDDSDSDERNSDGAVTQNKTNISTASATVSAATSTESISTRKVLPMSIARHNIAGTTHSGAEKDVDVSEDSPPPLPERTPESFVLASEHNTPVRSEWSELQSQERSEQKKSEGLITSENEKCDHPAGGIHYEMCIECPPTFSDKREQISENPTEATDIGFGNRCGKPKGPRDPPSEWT
# [1] = target: T4, PP2A Alpha/PP2R1A Complex (Homo sapiens, UniProt P67775); assay: Phosphatase panel, DiFMUP fluorescence assay; format: biochemical
# T4 construct: purchased Recation Biology Inc
# T4 sequence (P67775 whole entry): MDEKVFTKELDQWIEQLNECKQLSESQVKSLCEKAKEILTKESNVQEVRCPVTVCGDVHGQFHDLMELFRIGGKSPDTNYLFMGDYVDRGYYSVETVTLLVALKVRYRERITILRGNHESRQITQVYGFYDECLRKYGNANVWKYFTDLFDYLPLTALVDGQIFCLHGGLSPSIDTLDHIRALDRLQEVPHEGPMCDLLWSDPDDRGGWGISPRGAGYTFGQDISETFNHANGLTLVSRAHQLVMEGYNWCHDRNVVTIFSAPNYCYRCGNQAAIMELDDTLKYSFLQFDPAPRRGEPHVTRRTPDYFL
# T4 sequence (P30153 whole entry partner): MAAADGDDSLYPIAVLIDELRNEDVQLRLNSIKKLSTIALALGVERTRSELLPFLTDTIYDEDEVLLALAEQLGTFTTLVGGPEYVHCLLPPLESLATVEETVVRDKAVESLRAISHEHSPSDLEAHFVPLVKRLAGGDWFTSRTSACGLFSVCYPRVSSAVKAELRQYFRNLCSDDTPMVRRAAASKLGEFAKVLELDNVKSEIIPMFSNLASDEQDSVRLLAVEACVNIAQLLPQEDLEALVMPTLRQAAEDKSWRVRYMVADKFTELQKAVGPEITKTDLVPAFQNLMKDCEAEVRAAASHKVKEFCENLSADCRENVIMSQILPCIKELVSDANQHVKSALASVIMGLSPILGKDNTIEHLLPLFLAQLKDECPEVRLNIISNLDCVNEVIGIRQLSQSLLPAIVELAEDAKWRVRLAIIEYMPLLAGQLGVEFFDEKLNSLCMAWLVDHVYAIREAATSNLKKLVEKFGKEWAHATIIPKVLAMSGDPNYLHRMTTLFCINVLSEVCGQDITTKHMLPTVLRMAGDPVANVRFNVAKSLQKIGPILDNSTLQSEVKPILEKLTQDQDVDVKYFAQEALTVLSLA
# PTPN6/SHP1 = target: T5, PTPN6/SHP1 (Homo sapiens, UniProt P29350); assay: Phosphatase panel, DiFMUP fluorescence assay; format: biochemical
# T5 construct: purchased Recation Biology Inc
# T5 sequence (P29350 whole entry): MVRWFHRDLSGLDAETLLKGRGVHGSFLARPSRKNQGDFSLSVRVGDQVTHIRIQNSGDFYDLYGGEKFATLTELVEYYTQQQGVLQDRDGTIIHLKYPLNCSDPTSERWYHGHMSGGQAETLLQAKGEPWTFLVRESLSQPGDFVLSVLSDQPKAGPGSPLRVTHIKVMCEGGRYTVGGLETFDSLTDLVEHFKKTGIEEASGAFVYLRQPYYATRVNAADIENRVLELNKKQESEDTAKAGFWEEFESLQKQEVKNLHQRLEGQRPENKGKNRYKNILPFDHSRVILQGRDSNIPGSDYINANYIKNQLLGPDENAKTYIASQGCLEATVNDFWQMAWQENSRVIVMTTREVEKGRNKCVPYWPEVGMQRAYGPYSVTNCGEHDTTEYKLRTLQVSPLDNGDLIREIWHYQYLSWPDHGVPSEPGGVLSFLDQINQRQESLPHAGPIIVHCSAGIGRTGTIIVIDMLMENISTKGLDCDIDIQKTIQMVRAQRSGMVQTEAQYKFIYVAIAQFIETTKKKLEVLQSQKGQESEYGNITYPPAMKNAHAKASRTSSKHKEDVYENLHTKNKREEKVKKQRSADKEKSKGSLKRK
# [2] = Table 5B, read-out: Compound IC50 (M) PTPRC/CD45
# [3] = Table 5C, read-out: Compound IC50 (M) PTPN12/PTP-PEST
# [4] = Table 5B, read-out: Compound IC50 (M) PP2A Alpha/PP2R1A Complex
# [5] = Table 19A, read-out: inhibitory activity PTPN6/SHP1
# [6] = Table 19A, read-out: inhibitory activity PTPRC/CD45
# [7] = Table 19B, read-out: inhibitory activity PTPN12/PTP-PEST
# [8] = Table 19A, read-out: inhibitory activity PP2A Alpha/PP2R1A Complex
Compound,IC50 (PTPN11/SHP2-FL(E76K)) [nM],IC50 (PTPRC/CD45; [2]) [M],IC50 (PTPN12/PTP-PEST; [3]) [M],"IC50 [1, 4] [M]",activity at PTPN6 (PTPN6/SHP1),"IC50 (PTPN6/SHP1; Table 5B, read-out: Compound IC50 (M) PTPN6/SHP1) [M]",IC50 (PTPN6/SHP1; [5]) [M],IC50 (PTPRC/CD45; [6]) [M],IC50 (PTPN12/PTP-PEST; [7]) [M],activity at PP2 Å alpha [1],"IC50 [1, 8] [M]","IC50 (PTPN6/SHP1; Table 18A, read-out: inhibitory activity PTPN6/SHP1) [M]","IC50 (PTPRC/CD45; Table 18A, read-out: inhibitory activity PTPRC/CD45) [M]","IC50 (PTPN12/PTP-PEST; Table 18B, read-out: inhibitory activity PTPN12/PTP-PEST) [M]","IC50 ([1]; Table 18A, read-out: inhibitory activity PP2A Alpha/PP2R1A Complex) [M]"
"CC(C)[C@@H](CC[C@@H](C)[C@H]1CC[C@H]2[C@@H]3[C@H](O)C[C@H]4C[C@@H](NCCCNCCCCNCCCN)CC[C@]4(C)[C@H]3CC[C@]12C)OS(=O)(=O)O (single isomer, unassigned) [ENT-02 (MSI-1436), trodusquemine]",292,4.94e-07,1.72e-06,5.72e-05,–,–,–,–,–,–,–,–,–,–,–
"CC(CCC[C@@H](C)[C@H]1CCC2C3C(CC[C@@]21C)[C@@]1(C)CC[C@H](NCCCNCCCCNCCCN)C[C@@H]1C[C@H]3O)C(=O)O (single isomer, unassigned) [ENT-03]",294,5.71e-07,8.61e-07,> 0.0001,inactive,> 0.0001,> 0.0001,5.17e-07,8.61e-07,inactive,> 0.0001,–,–,–,–
"CC(CCC[C@@H](C)[C@H]1CCC2C3C(CC(O)[C@@]21C)[C@@]1(C)CC[C@H](NCCCNCCCCN)C[C@@H]1C[C@H]3O)C(=O)O (single isomer, unassigned) [ENT-05]",43,–,–,–,–,–,–,–,–,–,–,> 0.0001,> 0.0001,> 0.0001,3.8e-06
"CC(CCC[C@@H](C)[C@H]1CCC2C3C(CC[C@@]21C)[C@@]1(C)CC[C@H](NCCCNCCCCN)C[C@@H]1C[C@H]3O)C(=O)O (single isomer, unassigned) [ENT-06]",345,–,–,–,–,–,> 0.0001,1.22e-06,8.62e-07,–,> 0.0001,–,–,–,–

# Reference: US20250228873A1, “C25 R AND S ISOMERS OF AMINOSTEROLS AND METHODS OF MAKING AND USING THE SAME” (Enterin, Inc., priority 2022, published 2025)
